Reference: patent publication US8889840B2, “Vascular leakage inhibitor” (Industry-Academic Cooperation Foundation, Yonsei University, priority 2009, dated 2014)

How the values were obtained:
[1] = tested on: human retinal endothelial cells (HRECs); assay: Serum depletion-induced apoptosis of HRECs, MTT assay and cell morphology; format: cell-based; conditions: for ability of inhibiting apoptosis (MTT assay): 48 hours after treatment; for ability of protecting retinal vascular endothelial cells from apoptosis induced by the removal of serum (MTT): serum-free medium, 0.1-10 μg/mL
Method: HRECs (3×10^4 cells/well) were seeded on a 24-well plate in M199 medium containing 20% fetal bovine serum. The next day, the cells were transferred to a medium containing […] Sac0601 (FIG. 4a) or 0.1-10 μg/mL Sac0504 (FIG. 4b). Cell viability was determined by MTT assay 48 hours later. FIGS. 5a-5c show the result of observing cell morphologies.
Human umbilical vein endothelial cells (HUVECs) and human retinal endothelial cells (HRECs) purchased from Cell Systems (USA) were seeded on a 100-mm culture dish in M199 medium (Life Technologies, USA) containing 20% (w/v) fetal bovine serum (FBS, HyClone, Canada), 100 units/mL penicillin (Invitrogen, USA), 100 μg/mL streptomycin (invitrogen, USA), 3 ng/mL basic fibroblast growth factor (bFGF, Upstate Biotechnology, USA) and 5 units/mL heparin and cultured in a 5% CO2 incubator at 37° C.
Also, HRECs were treated with the compounds synthesized in Synthesis Example 5 and MIT assay was performed 48 hours later in the same manner as described above.
Also, the acid compound wherein the methyl ester formed by the introduction of the ester group was hydrolyzed was synthesized to provide improved water solubility and activity. MYT assay was performed for the compounds synthesized in Synthesis Example 6 in the same manner as described above 48 hours after treatment.
Their ability of inhibiting apoptosis was confirmed again for HRECs. HRECs (3×10^4 cells/well) were seeded on a 24-well plate in M199 medium (1 mL) containing 20% fetal bovine serum, Next day, the cells were transferred to serum-free M199 medium containing 0.1-10 μg/ml. Sac060.1 (FIG. 4a) or 0.1-10 μg; mL Sac0504 (FIG. 4b). Cell viability was determined by MTF assay in the same manner as in Test Example 1.
Their ability of inhibiting apoptosis was confirmed again for HRECs.

HUVECs = assay: VEGF-induced actin stress fibers in HUVECs, rhodamine phalloidin staining; format: cell-based, human; conditions: 10 μg/mL pretreatment 1 hour, 20 ng/mL VEGF
Method: Confluent HUVECs were pretreated with the compounds (10 μg/mL) for 60 minutes before treating with 20 ng/mL VEGF (1 hr). The cells were then stained with rhodamine phalloidin.
It is known that the change in the actin structure of the cytoskeleton is closely related with the permeability of vascular endothelial cells. Increased permeability of vascular endothelial cells leads to increased formation of actin stress fibers and decrease of cortical actin ring structures. Based on this, the ability of inhibiting vascular endothelial permeability of the synthesized Rk1 derivatives was screened. Confluent HUVECs were pretreated with the synthesized compounds (10 μg/mL) for 1 hour before treating with 20 ng/mL VEGF (Upstate Biotechnology). Subsequently, the cells were fixed with 4% paraformaldehyde for 20 minutes at room temperature and washed 3 times with PBS (pH 7.4). Then, the cells were permeabilized with 0.1% Triton X-100/PBS and reacted with 0.1 mg/mL rhodamine phalloidin (Molecular Probes) for 1 hour. Then, the cells were observed under a fluorescence microscope (Olympus).

HRECs [2] = assay: VEGF-induced actin stress fibers in HRECs, rhodamine phalloidin staining; format: cell-based, human; conditions: 10 μg/mL 1 hour, then 20 ng/mL VEGF 1 hour
Method: Confluent HRECs were treated with 10 μg/mL Sac0601 or Sac0504 for 1 hour and then with 20 ng/mL VEGF for 1 hour. Subsequently, the cells were fixed at room temperature for 20 minutes with 4% paraformaldehyde and washed 3 times with PBS (pH 7.4). Then, the cells were permeabilized with 0.1% Triton X-100/PBS and reacted with 0.1 mg/mL rhodamine phalloidin (Molecular Probes) for 1 hour. Then, the cells were observed under a fluorescence microscope (Olympus). […] The analysis of actin cytoskeleton was conducted also for the compounds synthesized in Synthesis Example 5. Both Sac0904 and Sac0902 exerted effects in a concentration-dependent manner on the actin cytoskeleton which is closely related with vascular permeability (FIG. 7c).

[3] = tested on: diabetic mouse (DM) model; assay: Retinal vascular permeability in diabetic mouse (DM) model, FITC-dextran; format: in vivo, C57/BL6 mouse; conditions: streptozotocin diabetic mouse, 10 μg into the vitreous body, 24 hours
Method: 10 μg of Sac0601 or 10 μg of Sac0504 was injected into the vitreous body of one eye of a diabetic mouse. 24 hours after the injection, 100 μL of FITC-dextran (30 mg/mL in filtered […]) was injected into the left ventricle. Then, the retina was observed under an optical microscope (FIG. 11a) and the fluorescence intensity was quantified (FIG. 11b).
For in vivo analysis of the effect of the synthesized Rk1 derivatives on increased vascular permeability in diabetic retinopathy, a diabetic mouse (DM) model was made by injecting streptozotocin to C57/BL6 mouse. Sac 0601 or Sac 0504 (10 μg) was injected into the vitreous body of the mouse. 24 hours later, 40-kDa FITC-dextran (30 mg/mL in PBS, Sigma) was injected into the left ventricle. After waiting for about 2 minutes for circulation of the tracer, the eyes were taken out and fixed immediately in 4% PFA. Then, the retina was taken out and observed under an optical microscope.

HRECs [4] = assay: Stability of tight junctions (TJs) at cell-cell contacts in VEGF-treated HRECs, anti-occludin immunostaining; format: cell-based, human; conditions: 10 μg/mL 1 hour, then 20 ng/mL VEGF 1 hour
Method: In FIG. 8a, confluent HRECs were pretreated with Sac0601 (panel A in FIG. 8a) or Sac0504 (panel B in FIG. 8a) for 60 minutes before treating with 20 ng/ml. VEGF (1 hr). The cells were then stained with occludin antibody.
(§1) Confluent HRECs were treated with 10 μg/mL Sac0601 (FIG. 8a, panel A) or Sac0504 (FIG. 8a, panel B) for 1 hour and then with 20 ng/mL. VEGF for 1 hour. Subsequently, the cells were fixed at room temperature for 20 minutes with 4% paraformaldehyde and permeabilized with 0:1% Triton X-100/PBS. Then, the cells were incubated in PBS blocking solution containing 5% normal goat serum and 0.05% Tween-20. The cells were then reacted with anti-occludin antibody (Zymed Laboratories Inc.). The result was visualized with fluorescein-conjugated anti-mouse antibody (Vector Lab.). Also, western blotting was conducted for the cell lysate. The cell lysate was fractionated with SDS-PAGE and then transferred to polyvinyl difluoride membrane. The blocked membrane was reacted with anti-occludin antibody (Zymed Laboratories Inc.) and the immune response band was visualized with the chemiluminescence reagent obtained from Amersham Biosciences, Inc.

occludin = assay: Occludin western blotting of HREC lysate; format: cell-based, human; conditions: HRECs, pretreatment 60 minutes, then 20 ng/mL VEGF 1 hour
Method: In FIG. 8b, confluent HRECs were pretreated with Sac0601 (10 μg/mL) for 60 minutes before treating with 20 ng/mL VEGF (1 hr). Then, cell lysate was subjected to western blotting using anti-occludin antibody.
as §1

HRECs [5] = assay: Permeability of HRECs on transwell filter, labelled sucrose; format: cell-based, human; conditions: 10 μg/mL 60 minutes, with or without 20 ng/mL VEGF
Method: HRECs were seeded on a transwell filter. After reaching confluency, the cells were pretreated with Sac0601 (FIG. 10a) and Sac0504 (FIG. 10b) for 60 minutes before treating with 20 ng/ml. VEGF (1 hr). The permeability of HRECs was determined by measuring radiation of […] (1 μCi/μL) diffused below the transwell using a liquid scintillation counter.
The effect of Sac0601 and Sac0504 on vascular permeability was analyzed. HRECs were seeded on a transwell filter (Corning Costar). After reaching confluency, the cells were cultured in M199 medium containing 1% FBS for 3 hours and treated with 10 μg/mL. Sac0601 (FIG. 10a) or Sac0504 (FIG. 10b) for 60 minutes, with or without pretreatment with 20 ng/mL VEGF for 60 minutes. Then, [^3H]sucrose (1 μCi [0.037 MBq.]/μL or 50 μL (0.8 μCi [0.0296 MBq])/mL, Amersham Pharmacia) were added. 30 minutes later, radiation diffused below the transwell was measured using a liquid scintillation counter (Wallac, PerkinElmer). Measurement was made at least four locations.

Row | Structure (SMILES) | ability of inhibiting apoptosis (MTT assay) [1] | ability of protecting retinal vascular endothelial cells from apoptosis induced by the removal of serum (MTT) [1] | cortical actin ring structure (HUVECs) | formation of actin stress fibers induced by VEGF (HUVECs) | formation of actin stress fibers induced by VEGF (HRECs [2]) | formation of cortical actin ring structures (HRECs [2]) | retinal vascular permeability induced in the DM [3] | ability of protecting the vascular endothelial cells ([1]; incl. observation of cell morphologies) | redistribution of TJs into the cytoplasm or destabilizing at the cell membrane induced by VEGF (HRECs [4]) | occludin (western blotting) (occludin) | permeability of the vascular endothelial cells (HRECs [5])
1 | CC(=O)OCC1OC(OC2CCC3(C)C(=CCC4C3CCC3(C)C4CCC3C(C)(O)CCCC(C)C)C2)C=CC1OC(C)=O (stereo not shown) [Sac0902] | better ability of inhibiting apoptosis than Sac0601 | showed the ability of protecting the vascular endothelial cells from apoptosis induced by the removal of serum in a concentration-dependent manner | increased the cortical actin ring structure | inhibited the formation of actin stress fibers induced by VEGF | inhibited the formation of actin stress fibers | increased the formation of cortical actin ring structures | only limitedly | – | – | – | –
2 | CC(=O)OCC1OC(OC2CCC3(C)C(=CCC4C3CCC3(C)C(C(C)=CCCC(C)C)CCC43)C2)C=CC1OC(C)=O (stereo not shown) [Sac0904] | better ability of inhibiting apoptosis than Sac0601 | showed the ability of protecting the vascular endothelial cells from apoptosis induced by the removal of serum in a concentration-dependent manner | increased the cortical actin ring structure | inhibited the formation of actin stress fibers induced by VEGF | inhibited the formation of actin stress fibers | increased the formation of cortical actin ring structures | very effectively | – | – | – | –
3 | COC(=O)CCC/C=C(\C)[C@H]1CCC2C3CC=C4C[C@@H](OC5C=C[C@H](OC(C)=O)[C@@H](COC(C)=O)O5)CC[C@]4(C)C3CC[C@@]21C (stereo partly shown) [Sac1004] | improved ability of inhibiting apoptosis over SAC-0904 | showed the ability of protecting the vascular endothelial cells from apoptosis induced by the removal of serum in a concentration-dependent manner | increased the cortical actin ring structure | inhibited the formation of actin stress fibers induced by VEGF | inhibited the formation of actin stress fibers | increased the formation of cortical actin ring structures | very effectively | improved ability of protecting the vascular endothelial cells over SAC-0904 | could be inhibited | restores the activity of occludin decreased by VEGF | inhibiting permeability of the vascular endothelial cells
